# Test: Tissue distribution by quantitative whole-body autoradiography (QWBA)
# Format: in vivo, male Sprague Dawley and Long-Evans rats
# Conditions: for Cmax Ratio (PO/IV) / AUCall Ratio (PO/IV): 15 mg/kg, Group 7 vs Group 4
# Method: The study utilized 4 groups of male SD rats (albino), and 3 groups of male LE rats (pigmented); a total of 39 rats. All animals were obtained from Hilltop Lab Animals, Inc. (Scottdale, Pa.). […] Rats in Group 5 were administered a single 2-h IV infusion of [^14C]brincidofovir at a target dose of 2 mg/kg. […] Three dosing formulations (one for high dose IV, one for low dose IV, and one for PO dose) were prepared at QPS on the day of dosing. The IV formulation for Groups 1, 2, 3, and 4 contained a vehicle of 10 mM sodium phosphate buffer in 5% dextrose solution at pH 8.0(±0.1).
# Each animal, at their respective termination time points, was euthanized for QWBA analysis immediately after blood collection. One rat per time point per Group was euthanized as listed below.
# The blood samples were maintained on wet ice (approximately 4° C.) and then centrifuged to obtain plasma within 1 h of the blood collection time. Centrifuge settings were recorded in the study notebook. Duplicate aliquots of plasma (0.050 mL) were analyzed for radioactivity using direct counting by LSC, and residual plasma was stored at approximately −70° C. and was saved for possible future analysis under a separate study protocol. Residual red blood cells were discarded as radioactive waste.
# The pinna, distal limbs, hair, and tail were removed from each frozen carcass and each frozen carcass was embedded in an aqueous suspension of approximately 2% (w/v) carboxymethylcellulose and frozen into a block. The blocks were stored at approximately −20° C. prior to sectioning. Each blocked carcass was mounted on the object stage of a cryomicrotome (Leica CM3600 Cryomacrocut, Nussloch, Germany and Vibratome 9800, St. Louis, Mo.) maintained at approximately −20° C. and internal standards (3), which were plasma fortified with [^14C]-glucose at one concentration (approximately 0.05 μCi/mL), were placed into the frozen blocks, prior to sectioning, and were used for section thickness quality control. A number of whole-body sections (approximately 40 μm thick) were taken in the sagittal plane at various levels of interest using a whole-body cryomicrotome set at −20° C. Sagittal sections (20-50 μm thick) of frozen carcasses were exposed to phosphor imaging plates. Regions of images in tissues were converted to concentrations using standards. All of the major tissues, organs, and biological fluids were represented.
# Tissue concentration data was determined for the following tissues and/or contents: adipose (brown and white), adrenal gland, bile (in duct), blood (cardiac), bone, bone marrow, brain (cerebrum, cerebellum, medulla), cecum (and contents), large intestine (and contents), epididymis, esophagus, eye (uvea and lens), Harderian gland, heart, kidney (cortex and medulla), liver, lung, lymph node, pancreas, pituitary gland, prostate gland, salivary gland, seminal vesicles, skeletal muscle, skin (pigmented and non-pigmented), small intestine (and contents), stomach (gastric mucosa and contents), spleen, spinal cord, testis, thymus, thyroid, and urinary bladder (and contents).
# The imaging plate and sections were placed in light-tight exposure cassettes, in a copper-lined lead safe, for a 4-day exposure at room temperature. […] Quantification was performed by image densitometry using MCD image analysis software (v. 7.0, Interfocus Imaging Ltd) and a standard curve constructed from the integrated response [i.e., Molecular Dynamics Counts per square millimeter (MDC/mm^2)] and the nominal concentrations of the ^14C-calibration standards. The concentrations of radioactivity were expressed as the μg equivalents of [^14C]brincidofovir per gram sample (μg equiv/g). A lower limit of quantification (LLOQ) was applied to the data (See section 6.7.4).
# Tissue concentrations that fell below the LLOQ were identified as being below the quantification limit (BQL). Tissue areas that were not visualized on autoradiographic images were identified as no sample (NS) and reported as BQL.
smiles,measurement,setting,value
CCCCCCCCCCCCCCCCOCCCOP(=O)(O)CO[C@H](CO)Cn1ccc(N)nc1=O [[^14C] brincidofovir],Cmax Ratio (PO/IV),Liver,0.16
same,AUCall,"Liver, 2 h IV infusion 15 mg/kg, Group 4",2149.7645 μg equiv · h/g
same,Tissue Concentration (168 h),"Liver, 2 h IV infusion 15 mg/kg, Group 4, LLOQ 0.036",0.451 μg equiv/g
same,Tissue Concentration (168 h),"Liver, PO 15 mg/kg, Group 7, LLOQ 0.034",0.393 μg equiv/g
same,AUCall,"Liver, PO 15 mg/kg, Group 7",1426.6340 μg equiv · h/g
same,AUCall Ratio (PO/IV),Lung,0.29
same,Cmax Ratio (PO/IV),Lung,0.16
same,AUCall,"Lung, 2 h IV infusion 15 mg/kg, Group 4",180.1960 μg equiv · h/g
same,Tissue Concentration (168 h),"Lung, 2 h IV infusion 15 mg/kg, Group 4, LLOQ 0.036",0.178 μg equiv/g
same,Tissue Concentration (168 h),"Lung, PO 15 mg/kg, Group 7, LLOQ 0.034",0.065 μg equiv/g
same,AUCall,"Lung, PO 15 mg/kg, Group 7",53.1145 μg equiv · h/g
same,AUCall Ratio (PO/IV),Lymph Node,0.41
same,Cmax Ratio (PO/IV),Lymph Node,0.11
same,AUCall,"Lymph Node, 2 h IV infusion 15 mg/kg, Group 4",208.8530 μg equiv · h/g
same,Tissue Concentration (168 h),"Lymph Node, 2 h IV infusion 15 mg/kg, Group 4, LLOQ 0.036",0.247 μg equiv/g
same,Tissue Concentration (168 h),"Lymph Node, PO 15 mg/kg, Group 7, LLOQ 0.034",0.129 μg equiv/g
same,AUCall,"Lymph Node, PO 15 mg/kg, Group 7",85.04 μg equiv · h/g
same,AUCall Ratio (PO/IV),Pancreas,0.29
same,Cmax Ratio (PO/IV),Pancreas,0.13
same,AUCall,"Pancreas, 2 h IV infusion 15 mg/kg, Group 4",36.2010 μg equiv · h/g
same,Tissue Concentration (168 h),"Pancreas, 2 h IV infusion 15 mg/kg, Group 4, LLOQ 0.036",BQL
same,Tissue Concentration (168 h),"Pancreas, PO 15 mg/kg, Group 7, LLOQ 0.034",BQL
same,AUCall,"Pancreas, PO 15 mg/kg, Group 7",10.3720 μg equiv · h/g
same,AUCall Ratio (PO/IV),Pituitary Gland,0.20
same,Cmax Ratio (PO/IV),Pituitary Gland,0.05
same,AUCall,"Pituitary Gland, 2 h IV infusion 15 mg/kg, Group 4",155.1085 μg equiv · h/g
same,Tissue Concentration (168 h),"Pituitary Gland, 2 h IV infusion 15 mg/kg, Group 4, LLOQ 0.036",0.189 μg equiv/g
same,Tissue Concentration (168 h),"Pituitary Gland, PO 15 mg/kg, Group 7, LLOQ 0.034",0.042 μg equiv/g
same,AUCall,"Pituitary Gland, PO 15 mg/kg, Group 7",30.5073 μg equiv · h/g
same,AUCall Ratio (PO/IV),Prostate Gland,0.62
same,Cmax Ratio (PO/IV),Prostate Gland,0.30
same,AUCall,"Prostate Gland, 2 h IV infusion 15 mg/kg, Group 4",24.3415 μg equiv · h/g
same,Tissue Concentration (168 h),"Prostate Gland, 2 h IV infusion 15 mg/kg, Group 4, LLOQ 0.036",BQL
same,Tissue Concentration (168 h),"Prostate Gland, PO 15 mg/kg, Group 7, LLOQ 0.034",BQL
same,AUCall,"Prostate Gland, PO 15 mg/kg, Group 7",7.6578 μg equiv · h/g
same,AUCall Ratio (PO/IV),Salivary Gland,0.15
same,Cmax Ratio (PO/IV),Salivary Gland,0.09
same,AUCall,"Salivary Gland, 2 h IV infusion 15 mg/kg, Group 4",60.9180 μg equiv · h/g
same,Tissue Concentration (168 h),"Salivary Gland, 2 h IV infusion 15 mg/kg, Group 4, LLOQ 0.036",0.056 μg equiv/g
same,Tissue Concentration (168 h),"Salivary Gland, PO 15 mg/kg, Group 7, LLOQ 0.034",BQL
same,AUCall,"Salivary Gland, PO 15 mg/kg, Group 7",9.1933 μg equiv · h/g
same,AUCall Ratio (PO/IV),Seminal Vesicles,0.17
same,Cmax Ratio (PO/IV),Seminal Vesicles,0.45
same,AUCall,"Seminal Vesicles, 2 h IV infusion 15 mg/kg, Group 4",297.3580 μg equiv · h/g
same,Tissue Concentration (168 h),"Seminal Vesicles, 2 h IV infusion 15 mg/kg, Group 4, LLOQ 0.036",0.361 μg equiv/g
same,Tissue Concentration (168 h),"Seminal Vesicles, PO 15 mg/kg, Group 7, LLOQ 0.034",0.063 μg equiv/g
same,AUCall,"Seminal Vesicles, PO 15 mg/kg, Group 7",50.2500 μg equiv · h/g
same,AUCall Ratio (PO/IV),Skeletal Muscle,0.13
same,Cmax Ratio (PO/IV),Skeletal Muscle,0.16
same,AUCall,"Skeletal Muscle, 2 h IV infusion 15 mg/kg, Group 4",10.3485 μg equiv · h/g
same,Tissue Concentration (168 h),"Skeletal Muscle, 2 h IV infusion 15 mg/kg, Group 4, LLOQ 0.036",BQL
same,Tissue Concentration (168 h),"Skeletal Muscle, PO 15 mg/kg, Group 7, LLOQ 0.034",BQL
same,AUCall,"Skeletal Muscle, PO 15 mg/kg, Group 7",1.3265 μg equiv · h/g
same,AUCall Ratio (PO/IV),Skin (non-pigmented),0.10
same,Cmax Ratio (PO/IV),Skin (non-pigmented),0.17
same,AUCall,"Skin (non-pigmented), 2 h IV infusion 15 mg/kg, Group 4",146.2340 μg equiv · h/g
